In the CheMixHub viscosity set:

Assay: xn = mol fraction of the nth substance listed
Conditions: 101 kPa

CC(O)CCO (stereo not given) + NCCN
viscosity [mPa·s]
Conditions | 298.15 K | 303.15 K | 308.15 K | 313.15 K | 318.15 K
x1 = 0.0339 | 1.64 | 1.4 | 1.3 | 1.21 | 1.04
x1 = 0.069 | 1.98 | 1.66 | 1.56 | 1.42 | 1.23
x1 = 0.1053 | 2.43 | 2.01 | 1.82 | 1.7 | 1.42
x1 = 0.1429 | 3.03 | 2.47 | 2.24 | 2.05 | 1.71
x1 = 0.1819 | 3.82 | 3.07 | 2.73 | 2.54 | 2.05
x1 = 0.2223 | 4.9 | 3.88 | 3.4 | 3.08 | 2.49
x1 = 0.2642 | 6.37 | 4.97 | 4.3 | 3.85 | 3.09
x1 = 0.3078 | 8.35 | 6.46 | 5.45 | 4.85 | 3.81
x1 = 0.353 | 11.2 | 8.5 | 7.1 | 6.21 | 4.83
x1 = 0.4001 | 15.1 | 11.2 | 9.15 | 7.91 | 6.04
x1 = 0.4491 | 20.4 | 14.9 | 12 | 10.2 | 7.56
x1 = 0.5001 | 27.3 | 19.6 | 15.4 | 13.1 | 9.61
x1 = 0.5533 | 36 | 25.4 | 19.7 | 16.4 | 12
x1 = 0.6088 | 46.1 | 32.1 | 24.8 | 20.4 | 14.8
x1 = 0.6667 | 56.3 | 39.4 | 29.9 | 24.5 | 18.2
x1 = 0.7273 | 66.7 | 47.4 | 35.9 | 28.7 | 21.5
x1 = 0.7908 | 77.5 | 56 | 41.7 | 32.4 | 24.4
x1 = 0.8572 | 85.7 | 62 | 46.2 | 35.8 | 26.9
x1 = 0.9269 | 91.6 | 66.1 | 49.3 | 38.2 | 28.6
